According to patent US20260069584A1, “METHODS OF TREATING CHRONIC MYELOID LEUKEMIA USING THE TYROSINE KINASE INHIBITOR VODOBATINIB” (Sun Pharma Advanced Research Company Ltd., priority 2022, published 2026):
“Also recorded” adds a separate entry of the source.

Assays:
[1] = Parts B and C pooled (n=59): safety; conditions: in vivo
Text: Fifty-five of the 59 subjects (93.2%) experienced an AE during the study, of which 62.7% of AEs (n=37) were suspected to be related to the compound of Formula I treatment. Most frequently reported AEs related to the compound of Formula I included thrombocytopenia, neutropenia, nausea, diarrhea, pruritus, fatigue and myalgia. The compound of Formula I-related AEs was generally low grade and resolved with drug hold or dose reduction. […] The AEs were distributed across all the dosing cohorts without any safety trends or association with dose(s). The DLTs (except for 1 event of fatal intracranial hemorrhage) were non-serious AEs and managed well by dose delays and/or reductions. […] A total of 5 subjects died during the study or within 30 days after the last dose of the study drug, which is not unexpected given that all patients enrolled in the study had advanced and heavily pretreated CML. The AEs related to the compound of Formula I treatment were consistent with the advanced CML population with multiple comorbidities and concomitant medications during the study.

[2] = test system: cell lines expressing Ph+ wild-type and mutant forms of BCR-ABL1; test: Growth inhibition of cell lines; assay type: cell-based
[3] = Single- and repeat-dose studies in preclinical models, oral route
[4] = Part B: treatment-emergent cardiovascular adverse events (CVAEs); assay type: in vivo, human
Text: For the purpose of the present invention, the adverse events were graded as per the National Cancer Institute's, Common Terminology Criteria for Adverse Events (NCI-CTCAE) Version 4.03 and Version 5.0 (https://evs.nci.nih.gov/ftp1/CTCAE/About.html). It is a descriptive terminology which can be utilized for Adverse Event (AE) reporting.
AEs were graded as per NCI-CTCAE Version 5.0. In the present study, along with others most common AEs for which patients were monitored were thrombocytopenia, neutropenia and anemia, any AE reported by the patient after the completion of AE collection period and considered related to the study drug was reported.
Two CVAEs considered related to the compound of Formula I: one Grade 2 hypertension and one fatal intracranial hemorrhage (ICH) with concomitant disease progression to BP CML.
Table 22 below lists the medical history of patients and CVAEs that were reported in the patient during treatment.

[5] = Prior Ponatinib (N = 22), Any grade

Cc1ccc(C(=O)NNC(=O)c2c(C)cccc2Cl)cc1C#Cc1cnc2ccccc2c1 [compound of Formula I, N′-(2-chloro-6-methylbenzoyl)-4-methyl-3-[2-(3-quinolyl)ethynyl]-benzohydrazide]
AEs suspected to be related to treatment ([1]; human): 62.7% | subjects who died during the study or within 30 days after the last dose ([1]; human): 5 subjects | subjects who experienced an AE ([1]; human): 93.2% | subjects who experienced an SAE ([1]; human): 34% | subjects with grade 3 or higher-grade AEs ([1]; human): Approximately 64.4% | relatedness of cardiac AEs [1]: considered unrelated | effect on cell lines [2]: growth inhibition | adverse events ([3]; multiple efficacious doses): no specific adverse events | systemic exposure ([3]; oral route, daily dosing): systemic bioavailability | AUC ([3]; plasma, oral): 13400 ng·h/mL | patients with CVAEs ([4]; 1 patient, less than or equal to 2 TKIs): 5.5% | patients with CVAEs ([4]; 10 patients, prior ponatinib): 45.4% | CVAEs unrelated to the compound ([4]; 12 patients with CV history): 10 | patients with CVAEs ([4]; 13 patients, more than or equal to 3 TKIs): 37.1% | patients with CVAEs, any grade ([4]; 14 patients out of 53): 26.4% | Treatment-emergent cardiovascular AE: Adverse Events Cluster - Cardiac and vascular events (%) ([4]; Overall (N = 53), Any grade): (26.4%) | Treatment-emergent cardiovascular AE: Angina Pectoris (%) ([4]; Overall (N = 53), Any grade): (3.7%) | Treatment-emergent cardiovascular AE: Arteriosclerosis (%) ([4]; Overall (N = 53), Any grade): (1.8%) | Treatment-emergent cardiovascular AE: Cerebral haemorrhage (%) ([4]; Overall (N = 53), Any grade): (1.8%) | Treatment-emergent cardiovascular AE: Congestive heart failure (%) ([4]; Overall (N = 53), Any grade): (1.8%) | Treatment-emergent cardiovascular AE: Hot flush (%) ([4]; Overall (N = 53), Any grade): (1.8%) | Treatment-emergent cardiovascular AE: Hypertension (%) ([4]; Overall (N = 53), Any grade): (7.5%) | Treatment-emergent cardiovascular AE: Hypotension (%) ([4]; Overall (N = 53), Any grade): (1.8%) | Treatment-emergent cardiovascular AE: Intermittent claudication (%) ([4]; Overall (N = 53), Any grade): (1.8%) | Treatment-emergent cardiovascular AE: Intracranial haemorrhage (%) ([4]; Overall (N = 53), Any grade): (1.8%) | Treatment-emergent cardiovascular AE: Mouth haemorrhage (%) ([4]; Overall (N = 53), Any grade): (1.8%) | Treatment-emergent cardiovascular AE: Palpitations (%) ([4]; Overall (N = 53), Any grade): (1.8%) | Treatment-emergent cardiovascular AE: Syncope (%) ([4]; Overall (N = 53), Any grade): (1.8%) | Treatment-emergent cardiovascular AE: Transient ischaemic attack (%) ([4]; Overall (N = 53), Any grade): (1.8%) | Treatment-emergent cardiovascular AE: Troponin I increased (%) ([4]; Overall (N = 53), Any grade): (1.8%) | Treatment-emergent cardiovascular AEs: Deaths (%) ([4]; Overall (N = 53), Any grade): (1.8%) | Treatment-emergent cardiovascular AEs: Dose interruption and restart (%) ([4]; Overall (N = 53), Any grade): (3.7%) | Treatment-emergent cardiovascular AEs: Leading to drug withdrawal (%) ([4]; Overall (N = 53), Any grade): (1.8%) | Treatment-emergent cardiovascular AEs: Related to study drug (%) ([4]; Overall (N = 53), Any grade): (3.7%) | Treatment-emergent cardiovascular AEs: Serious Adverse Events (%) ([4]; Overall (N = 53), Any grade): (7.5%) | Treatment-emergent cardiovascular AE: Adverse Events Cluster - Cardiac and vascular events (%) ([4]; Overall (N = 53), Grade 3/4): (5.6%) | Treatment-emergent cardiovascular AE: Congestive heart failure (%) ([4]; Overall (N = 53), Grade 3/4): (1.8%) | Treatment-emergent cardiovascular AE: Hypertension (%) ([4]; Overall (N = 53), Grade 3/4): (1.8%) | Treatment-emergent cardiovascular AE: Syncope (%) ([4]; Overall (N = 53), Grade 3/4): (1.8%) | Treatment-emergent cardiovascular AEs: Dose interruption and restart (%) ([4]; Overall (N = 53), Grade 3/4): (1.8%) | Treatment-emergent cardiovascular AEs: Serious Adverse Events (%) ([4]; Overall (N = 53), Grade 3/4): (1.8%) | CVAEs during treatment ([4]; Patient 25000603, history: Hypertension, Myocardial ischaemia, prior TKI therapy 3, ponatinib received No): Hypertension | CVAEs during treatment ([4]; Patient 35600503, history: Intracranial hemorrhage, prior TKI therapy 3, ponatinib received No): Oral hemorrhage | CVAEs during treatment ([4]; Patient 35600706, history: Acute myocardial infarction, myocardial ischemia, prior TKI therapy 3, ponatinib received No): Hypertension | CVAEs during treatment ([4]; Patient 41000101, history: Hypertension, prior TKI therapy 3, ponatinib received No): Angina pectoris,; also recorded: Palpitations,; also recorded: Arteriosclerosis | CVAEs during treatment ([4]; Patient 84000202, history: Hypertension, prior TKI therapy 4, ponatinib received Yes): Hypertension,; also recorded: Hypotension | CVAEs during treatment ([4]; Patient 84000203, history: Hypertension, prior TKI therapy 6, ponatinib received Yes): Hot flush | CVAEs during treatment ([4]; Patient 84000206, history: Bradycardia, Hypertension, prior TKI therapy 5, ponatinib received Yes): Angina pectoris | Treatment-emergent cardiovascular AE: Adverse Events Cluster - Cardiac and vascular events (%) [4, 5]: (45.4%) | Treatment-emergent cardiovascular AE: Angina Pectoris (%) [4, 5]: (4.5%) | Treatment-emergent cardiovascular AE: Cerebral haemorrhage (%) [4, 5]: (4.5%)
